# Assay results as given in patent publication US20100267561A1, “HERBICIDAL PYRIDAZINONE DERIVATIVES” (priority 2007, published 2010).
# Assays:
# Assay type in all cases: in vivo
# [1] = system: pigweed (Amaranthus retroflexus); experiment: Test A pre-/postemergence plant response
# Procedure, shortened: (§1)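 Seeds were planted in blended loam soil and sand, then treated preemergence by directed soil spray. At that time, emerged plants (one- to two-leaf, 2–10 cm) received postemergence applications of the same surfactant-containing formulation. Injury was assessed visually on a 0–100 scale after approximately 10 days.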
# [2] = system: wheat (Triticum aestivum); experiment: Test A pre-/postemergence plant response
# Procedure, shortened: as §1
# [3] = system: pigweed (Amaranthus retroflexus); experiment: Test C pre-/postemergence plant response
# Procedure, shortened: (§2)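 Plant response was judged by eye against untreated controls following 15 to 25 days in a controlled growth environment, using 0 for no effect and 100 for complete control. Treatments were made both preemergence and postemergence, the latter on plants of 1- to 4-leaf stage.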
# [4] = system: winter wheat (Triticum aestivum); experiment: Test C pre-/postemergence plant response
# Procedure, shortened: as §2
# [5] = system: green foxtail (Setaria viridis); experiment: Test C pre-/postemergence plant response
# Procedure, shortened: as §2
# [6] = system: winter barley (Hordeum vulgare); experiment: Test C pre-/postemergence plant response
# Procedure, shortened: as §2
# [7] = system: annual bluegrass (Poa annua); experiment: Test C pre-/postemergence plant response
# Procedure, shortened: as §2
# [8] = system: blackgrass (Alopecurus myosuroides); experiment: Test C pre-/postemergence plant response
# Procedure, shortened: as §2
# [9] = system: Italian ryegrass (Lolium multiflorum); experiment: Test C pre-/postemergence plant response
# Procedure, shortened: as §2
# wild oat (Avena fatua) = experiment: Test C pre-/postemergence plant response
# Procedure, shortened: as §2
# [10] = system: downy bromegrass (Bromus tectorum); experiment: Test C pre-/postemergence plant response
# Procedure, shortened: as §2
# [11] = system: spring barley (Hordeum vulgare); experiment: Test C pre-/postemergence plant response
# Procedure, shortened: as §2
# [12] = system: canarygrass (Phalaris minor); experiment: Test C pre-/postemergence plant response
# Procedure, shortened: as §2
# [13] = system: windgrass (Apera spica-venti); experiment: Test C pre-/postemergence plant response
# Procedure, shortened: as §2
# [14] = system: wild mustard (Sinapis arvensis); experiment: Test C pre-/postemergence plant response
# Procedure, shortened: as §2
# [15] = system: spring wheat (Triticum aestivum); experiment: Test C pre-/postemergence plant response
# Procedure, shortened: as §2
# [16] = Postemergence, 31 g ai/ha, 0 to 100 scale, 0 no effect, 100 complete control
# [17] = Postemergence, 125 g ai/ha, 0 to 100 scale, 0 no effect, 100 complete control
# [18] = Preemergence, 31 g ai/ha, 0 to 100 scale, 0 is no effect, 100 is complete control
# [19] = Preemergence, 125 g ai/ha, 0 to 100 scale (0 no effect, 100 complete control)
# [20] = Postemergence, 8 g ai/ha, scale 0 to 100, 0 no effect, 100 complete control
# [21] = Postemergence, 16 g ai/ha, scale 0 to 100, 0 no effect, 100 complete control
# [22] = Postemergence, 31 g ai/ha, scale 0 to 100, 0 no effect, 100 complete control
# [23] = Postemergence, 62 g ai/ha, scale 0 to 100, 0 no effect, 100 complete control
# [24] = Preemergence, 8 g ai/ha, scale 0 to 100 (0 no effect, 100 complete control)
# [25] = Preemergence, 16 g ai/ha, scale 0 to 100 (0 no effect, 100 complete control)
# [26] = Preemergence, 31 g ai/ha, scale 0 to 100 (0 no effect, 100 complete control)
# [27] = Preemergence, 62 g ai/ha, scale 0 to 100, 0 no effect, 100 complete control
structure (smiles),measurement,setting,value
CCCc1cc(-c2ccc(Cl)cc2)nn1-c1c(O)cnn(C)c1=O [Compound 43],"Plant response rating, Pigweed",[1]; [16],0
same,"Plant response rating, Pigweed",[1]; [17],0
same,"Plant response rating, Pigweed",[1]; [18],0
same,"Plant response rating, Pigweed",[1]; [19],0
same,"Plant response rating, Wheat",[2]; [16],40
same,"Plant response rating, Wheat",[2]; [17],80
same,"Plant response rating, Wheat",[2]; [18],20
same,"Plant response rating, Wheat",[2]; [19],70
same,"Plant response rating, Pigweed",[3]; [20],0
same,"Plant response rating, Pigweed",[3]; [21],0
same,"Plant response rating, Pigweed",[3]; [22],0
same,"Plant response rating, Pigweed",[3]; [23],0
same,"Plant response rating, Pigweed",[3]; [24],0
same,"Plant response rating, Pigweed",[3]; [25],0
same,"Plant response rating, Pigweed",[3]; [26],0
same,"Plant response rating, Pigweed",[3]; [27],20
same,"Plant response rating, Wheat, Winter",[4]; [20],5
same,"Plant response rating, Wheat, Winter",[4]; [21],25
same,"Plant response rating, Wheat, Winter",[4]; [22],40
same,"Plant response rating, Wheat, Winter",[4]; [23],65
same,"Plant response rating, Wheat, Winter",[4]; [24],0
same,"Plant response rating, Wheat, Winter",[4]; [25],0
same,"Plant response rating, Wheat, Winter",[4]; [26],20
same,"Plant response rating, Wheat, Winter",[4]; [27],70
same,"Plant response rating, Foxtail, Green",[5]; [20],90
same,"Plant response rating, Foxtail, Green",[5]; [21],95
same,"Plant response rating, Foxtail, Green",[5]; [22],98
same,"Plant response rating, Foxtail, Green",[5]; [23],98
same,"Plant response rating, Foxtail, Green",[5]; [24],75
same,"Plant response rating, Foxtail, Green",[5]; [25],100
same,"Plant response rating, Foxtail, Green",[5]; [26],100
same,"Plant response rating, Foxtail, Green",[5]; [27],100
same,"Plant response rating, Barley, Winter",[6]; [20],5
same,"Plant response rating, Barley, Winter",[6]; [21],15
same,"Plant response rating, Barley, Winter",[6]; [22],40
same,"Plant response rating, Barley, Winter",[6]; [23],80
same,"Plant response rating, Barley, Winter",[6]; [24],0
same,"Plant response rating, Barley, Winter",[6]; [25],20
same,"Plant response rating, Barley, Winter",[6]; [26],50
same,"Plant response rating, Barley, Winter",[6]; [27],65
same,"Plant response rating, Bluegrass",[7]; [20],0
same,"Plant response rating, Bluegrass",[7]; [21],0
same,"Plant response rating, Bluegrass",[7]; [22],0
same,"Plant response rating, Bluegrass",[7]; [23],15
same,"Plant response rating, Bluegrass",[7]; [24],0
same,"Plant response rating, Bluegrass",[7]; [25],0
same,"Plant response rating, Bluegrass",[7]; [27],25
same,"Plant response rating, Blackgrass",[8]; [20],90
same,"Plant response rating, Blackgrass",[8]; [21],98
same,"Plant response rating, Blackgrass",[8]; [22],100
same,"Plant response rating, Blackgrass",[8]; [23],100
same,"Plant response rating, Blackgrass",[8]; [24],85
same,"Plant response rating, Blackgrass",[8]; [25],90
same,"Plant response rating, Blackgrass",[8]; [26],98
same,"Plant response rating, Blackgrass",[8]; [27],100
same,"Plant response rating, Ryegrass, Italian",[9]; [20],75
same,"Plant response rating, Ryegrass, Italian",[9]; [21],98
same,"Plant response rating, Ryegrass, Italian",[9]; [22],100
same,"Plant response rating, Ryegrass, Italian",[9]; [23],100
same,"Plant response rating, Ryegrass, Italian",[9]; [24],60
same,"Plant response rating, Ryegrass, Italian",[9]; [25],98
same,"Plant response rating, Ryegrass, Italian",[9]; [26],98
same,"Plant response rating, Ryegrass, Italian",[9]; [27],98
same,"Plant response rating, Oat, Wild",wild oat (Avena fatua); [20],100
same,"Plant response rating, Oat, Wild",wild oat (Avena fatua); [21],100
same,"Plant response rating, Oat, Wild",wild oat (Avena fatua); [22],100
same,"Plant response rating, Oat, Wild",wild oat (Avena fatua); [23],100
same,"Plant response rating, Oat, Wild",wild oat (Avena fatua); [24],35
same,"Plant response rating, Oat, Wild",wild oat (Avena fatua); [25],70
same,"Plant response rating, Oat, Wild",wild oat (Avena fatua); [26],80
same,"Plant response rating, Oat, Wild",wild oat (Avena fatua); [27],98
same,"Plant response rating, Bromegrass, Downy",[10]; [20],0
same,"Plant response rating, Bromegrass, Downy",[10]; [21],0
same,"Plant response rating, Bromegrass, Downy",[10]; [22],0
same,"Plant response rating, Bromegrass, Downy",[10]; [23],75
same,"Plant response rating, Bromegrass, Downy",[10]; [24],10
same,"Plant response rating, Bromegrass, Downy",[10]; [25],25
same,"Plant response rating, Bromegrass, Downy",[10]; [26],40
same,"Plant response rating, Bromegrass, Downy",[10]; [27],75
same,"Plant response rating, Barley, Spring",[11]; [20],20
same,"Plant response rating, Barley, Spring",[11]; [21],35
same,"Plant response rating, Barley, Spring",[11]; [22],50
same,"Plant response rating, Barley, Spring",[11]; [23],90
same,"Plant response rating, Barley, Spring",[11]; [24],0
same,"Plant response rating, Barley, Spring",[11]; [25],20
same,"Plant response rating, Barley, Spring",[11]; [26],35
same,"Plant response rating, Barley, Spring",[11]; [27],60
same,"Plant response rating, Canarygrass",[12]; [20],65
same,"Plant response rating, Canarygrass",[12]; [21],75
same,"Plant response rating, Canarygrass",[12]; [22],85
same,"Plant response rating, Canarygrass",[12]; [23],95
same,"Plant response rating, Canarygrass",[12]; [24],50
same,"Plant response rating, Canarygrass",[12]; [25],65
same,"Plant response rating, Canarygrass",[12]; [26],75
same,"Plant response rating, Canarygrass",[12]; [27],95
same,"Plant response rating, Windgrass",[13]; [20],30
same,"Plant response rating, Windgrass",[13]; [21],60
same,"Plant response rating, Windgrass",[13]; [22],60
same,"Plant response rating, Windgrass",[13]; [23],60
same,"Plant response rating, Windgrass",[13]; [25],25
same,"Plant response rating, Windgrass",[13]; [26],80
same,"Plant response rating, Windgrass",[13]; [27],100
same,"Plant response rating, Mustard, Wild",[14]; [20],0
same,"Plant response rating, Mustard, Wild",[14]; [21],0
same,"Plant response rating, Mustard, Wild",[14]; [22],0
same,"Plant response rating, Mustard, Wild",[14]; [23],25
same,"Plant response rating, Mustard, Wild",[14]; [24],0
same,"Plant response rating, Mustard, Wild",[14]; [25],0
same,"Plant response rating, Mustard, Wild",[14]; [26],0
same,"Plant response rating, Mustard, Wild",[14]; [27],0
same,"Plant response rating, Wheat, Spring",[15]; [20],0
same,"Plant response rating, Wheat, Spring",[15]; [21],15
same,"Plant response rating, Wheat, Spring",[15]; [22],60
same,"Plant response rating, Wheat, Spring",[15]; [23],90
same,"Plant response rating, Wheat, Spring",[15]; [24],0
same,"Plant response rating, Wheat, Spring",[15]; [25],0
same,"Plant response rating, Wheat, Spring",[15]; [26],30
same,"Plant response rating, Wheat, Spring",[15]; [27],65
